# Assay results published in patent publication US20180011102A1, “THE PROTEIN KINASE ACTIVITY OF PHOSPHOGLYCERATE KINASE 1 AS A TARGET FOR CANCER TREATMENT AND DIAGNOSIS” (Board of Regents, The University of Texas System, priority 2015, published 2018).
# “Also recorded” adds a separate entry of the source.
# Tests used:
# [1] = tested on: histone H3 at Ser10; assay: Western blot of EGF-induced histone H3 S10 phosphorylation; type: cell-based, human; conditions: U87 cells expressing PGK1 shRNA, EGF stimulation
# [2] = tested on: PDHK1 T338; assay: Immunoblotting of hypoxia-induced PDHK1 T338 phosphorylation; type: cell-based, human; conditions: U87 and U251 cells with PGK1 shRNA, hypoxia 6 h
# Method: FIGS. 14A-P. Mitochondrial PGK1 Phosphorylates PDHK1 at T338. FIG. 14A. […] Immunoblotting analyses were performed with the indicated antibodies. FIG. 14B. U87 cells (left panel) or U87/EGFR (right panel) cells expressing PGK1 shRNA with or without reconstituted expression of WT rPGK1 and the indicated mutants were stimulated with or without hypoxia for 6 h (left panel) or EGF (100 ng/ml) (right panel) for 6 h. These cells were incubated with [1-^14C]-pyruvate for 2 h. [1-^14C]CO2 production rates were measured. FIG. 14C. U87 cells expressing SFB-PDHK1, SFB-PDHK2, SFB-PDHK3, or SFB-PDHK4 were stimulated with or without hypoxia for 6 h. Mitochondrial fractions of these cells were prepared. SFB pull-down analyses with streptavidin-conjugated beads were performed. Immunoblotting analyses were performed with the indicated antibodies. FIG. 14D. […] Phospho-amino acid analysis of gel-isolated ^32P-phosphorylated SUMO-PDHK1 was performed. […] On the autoradiogram in the right hand panel, the green circle indicates pSer; the red circle indicates pThr; and the black circle indicates pTyr. FIG. 14E. […] FIG. 14F. […] ATP concentrations in mitoplast isolated from U87 or U251 cells treated with or without hypoxia for 6 h were measured. […] The glycolytic activities of bacterially purified WT PGK1, PGK1 T378P, PGK1 S203A, and PGK1 R39/K41A were measured. […]
# [3] = tested on: PDH; assay: Immunoblotting of hypoxia-induced PDH phosphorylation; type: cell-based, human; conditions: U87 and U251 cells expressing PGK1 shRNA, hypoxia 6 h
# Method: FIGS. 5A-E. PDHK1 Phosphorylation by PGK1 Activates PDHK1. Immunoblotting analyses were performed with the indicated antibodies. FIG. 5A. Bacterially purified His-PDH with purified WT PDHK1 or PDHK1 T338A was mixed with purified WT PGK1 or PGK1 T378P. In vitro phosphorylation analyses were performed. FIG. 5B. […] FIG. 5C. U87 and U251 cells expressing PDHK1 shRNA with or without reconstituted expression of WT rPDHK1 or rPDHK1 T338A were stimulated with or without hypoxia for 6 h. FIG. 5D. […] FIG. 5E.
# [4] = tested on: PDH complex; conditions: isolated mitochondria of U87 cells with PGK1 shRNA, hypoxia 6 h
# Method: U87 cells with or without PGK1 shRNA and with or without reconstituted expression of WT rPGK1 or rPGK1 S203A were stimulated with or without hypoxia for 6 h. Mitochondrial fractions of the cells were prepared and activity of PDH complex-mediated conversion of ^14C-labeled pyruvate into ^14C-labeled CO2 was measured. Data represent the means±SD of three independent experiments. *p<0.01.
# The [1-^14C]-pyruvate conversion assay was performed as previously described (Pezzato et al., 2009) with minor modification. Briefly, ^14CO2 production through the PDH complex was measured using isolated mitochondria (1 mg) in the 1 ml mitochondria resuspension buffer (200 mM sucrose, 10 mM Hepes [pH 7.4], 5 mM malate, 2 mM monosodium phosphate, 2 mM ADP, 1 mM EGTA) containing [1-^14C]-pyruvate (0.1 μCi/ml). The incubation mixture in a 2-ml Eppendorf tube was placed at the bottom of a 20-ml scintillation vial with a foil-lined screw cap and maintained in agitation. The ^14CO2 produced during incubation was trapped by 1 ml of hyamine hydroxide at the bottom of the scintillation vial. […] Then, 19 ml of scintillator liquid was added to each scintillation vial and radioactivity was measured on a scintillation counter. The results were normalized based on mitochondrial protein levels measured by Bradford assay using bovine serum albumin as the standard.
substance,measurement,setting,value
PGK1 shRNA: pGIPZ PGK1 shRNA generated with GGATGTCTATGTCAATGATGC (SEQ ID NO: 4),EGF-induced phosphorylation of histone H3 at Ser10,[1],blocked; also recorded: greatly diminished
same,hypoxia-induced PDHK1 T338 phosphorylation,[2],blocked
same,hypoxia-induced PDH phosphorylation,[3],blocked
same,hypoxia-induced suppression of conversion of pyruvate to CO2,[4],significantly counteracted
